Data on 8 compounds can be found in patent US20260217683A1, “PYRIDAZINONE HETEROCYCLIC COMPOUND MYOSIN II INHIBITOR AND USE THEREOF” (Xizang Haisco Pharmaceutical Co., Ltd., priority 2023, published 2026).

Where two headings read alike, the source gives them in different places.

One data set has as its target T1, CYP3A4 (Homo sapiens, UniProt P08684).
T1 construct: incubated with human liver microsomes and test compounds of different concentrations; from tissue; host or cells: human liver microsomes
Briefly: CYP450 enzyme inhibition, human liver microsomes, CYP3A4. It is filed as in vitro ADME. How it is done: (§1) The purpose of this study was to evaluate the effect of the test compound on the activity of five isoenzymes (CYP1A2, CYP2C9, CYP2C19, CYP2D6 and CYP3A4) of human liver microsomal cytochrome P450 (CYP) by using an in vitro testing system. The specific probe substrates of CYP450 isoenzymes were incubated with human liver microsomes and test compounds of different concentrations, and reduced nicotinamide adenine dinucleotide phosphate (NADPH) was added to initiate the reaction. After the completion of the reaction, the sample was treated and liquid chromatography-tandem mass spectrometry (LC-MS/MS) was used to quantitatively detect metabolites produced by specific substrates, changes in CYP enzyme activity were determined, and IC50 value was calculated to evaluate the inhibitory potential of the test compound on each CYP enzyme subtype.
(Microsomes from liver hold many membrane-bound enzymes, among them those of drug oxidation.)

Data set [1] has as its system rabbit skeletal muscle myosin. Description: Inhibition of hydrolysis of ATP by rabbit skeletal muscle myosin. It is filed as biochemical. The procedure, abridged: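 Actin-activated ATPase: F-actin plus rabbit skeletal myosin II with compound in Tris-HCl pH 7.5/KCl/EGTA/MgCl2, started with ATP (3 mM working stock) and run 60 min at 37 °C. Released Pi measured by CytoPhos absorbance at 650 nm against a phosphate standard curve; IC50 fitted from inhibition relative to uninhibited myosin.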

Another data set addresses T2, CYP2C19 (Homo sapiens, UniProt P33261).
T2 construct: incubated with human liver microsomes and test compounds of different concentrations; from tissue; host or cells: human liver microsomes
Briefly: CYP450 enzyme inhibition, human liver microsomes, CYP2C19. Type of data set: in vitro ADME. The protocol: as §1

The target in a further data set is T3, CYP2C9 (Homo sapiens, UniProt P11712).
T3 construct: incubated with human liver microsomes and test compounds of different concentrations; from tissue; host or cells: human liver microsomes
Description: CYP450 enzyme inhibition, human liver microsomes, CYP2C9. Type of data set: in vitro ADME. How it is done:
as §1

The target of a further data set is T4, CYP2D6 (Homo sapiens, UniProt P10635).
T4 construct: incubated with human liver microsomes and test compounds of different concentrations; from tissue; host or cells: human liver microsomes
Description: CYP450 enzyme inhibition, human liver microsomes, CYP2D6. Type of data set: in vitro ADME. How it is done: as §1

A further data set deals with T5, CYP1A2 (Homo sapiens, UniProt P05177).
T5 construct: incubated with human liver microsomes and test compounds of different concentrations; from tissue; host or cells: human liver microsomes
T5 sequence (P05177 1-516): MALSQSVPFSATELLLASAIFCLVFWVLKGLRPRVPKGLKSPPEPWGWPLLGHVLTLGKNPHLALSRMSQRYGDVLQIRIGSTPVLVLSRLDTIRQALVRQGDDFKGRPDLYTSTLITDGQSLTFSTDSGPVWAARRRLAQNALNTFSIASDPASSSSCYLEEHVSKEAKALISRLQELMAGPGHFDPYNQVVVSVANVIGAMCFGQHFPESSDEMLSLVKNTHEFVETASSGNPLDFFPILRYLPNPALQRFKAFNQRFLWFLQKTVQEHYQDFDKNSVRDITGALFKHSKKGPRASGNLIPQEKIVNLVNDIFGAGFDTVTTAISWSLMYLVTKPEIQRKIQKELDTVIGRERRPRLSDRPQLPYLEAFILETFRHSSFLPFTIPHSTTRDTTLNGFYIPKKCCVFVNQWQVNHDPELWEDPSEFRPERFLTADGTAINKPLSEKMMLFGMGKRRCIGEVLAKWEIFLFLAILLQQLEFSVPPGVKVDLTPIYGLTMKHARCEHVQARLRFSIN
Briefly: CYP450 enzyme inhibition, human liver microsomes, CYP1A2. It is filed as in vitro ADME. The protocol: as §1

Data set [2] is described as follows: Pharmacokinetic experiment in mouse muscle tissue (tibialis anterior / plasma). The note with it: male, C57, tibialis anterior muscle / plasma, oral, intragastric 10 mg/kg, read-out: Ratio = Tibialis anterior Conc./Plasma Conc. It is filed as in vivo, C57 mice. The protocol: 1. Experimental animals: Male C57 mice, 22-25 g, 6 mice/compound. Purchased from Chengdu Ddossy Experimental Animals Co., Ltd.
2. Experimental design: On the day of the experiment, C57 mice were randomly grouped according to their body weight. The animals were fasted with water available for 12 to 14 h one day before the administration and were fed 4 h after the administration. Administration was performed as per Table 10.1.

The target in the next data set is T6, smooth muscle myosin S1 (Gallus gallus, UniProt P10587).
T6 construct: purchased Cytoskeleton #CS-MYS05
Briefly: Inhibition of hydrolysis of ATP by smooth muscle myosin S1 fragments. Type of data set: biochemical. The note with it: 100 μM compound. Put shortly:
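Smooth muscle myosin S1 fragment (0.7 mg/mL in PM12 buffer with 1 mM DTT) was mixed with compound and F-actin polymer prepared from cardiac actin, then 5 mM ATP working solution started the reaction at 37° C. for 20 min. Released Pi was measured with CytoPhos reagent at 650 nm against a standard curve, and inhibition was calculated relative to positive control wells.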

The mark [3] stands for this setting: inhibition of hydrolysis of ATP, class symbols, read-out: Rabbit skeletal muscle myosin (IC50).
Where [4] appears, read: read-out: IC50 for inhibition of hydrolysis of ATP by rabbit skeletal muscle myosin.

T2 sequence (P33261 whole entry): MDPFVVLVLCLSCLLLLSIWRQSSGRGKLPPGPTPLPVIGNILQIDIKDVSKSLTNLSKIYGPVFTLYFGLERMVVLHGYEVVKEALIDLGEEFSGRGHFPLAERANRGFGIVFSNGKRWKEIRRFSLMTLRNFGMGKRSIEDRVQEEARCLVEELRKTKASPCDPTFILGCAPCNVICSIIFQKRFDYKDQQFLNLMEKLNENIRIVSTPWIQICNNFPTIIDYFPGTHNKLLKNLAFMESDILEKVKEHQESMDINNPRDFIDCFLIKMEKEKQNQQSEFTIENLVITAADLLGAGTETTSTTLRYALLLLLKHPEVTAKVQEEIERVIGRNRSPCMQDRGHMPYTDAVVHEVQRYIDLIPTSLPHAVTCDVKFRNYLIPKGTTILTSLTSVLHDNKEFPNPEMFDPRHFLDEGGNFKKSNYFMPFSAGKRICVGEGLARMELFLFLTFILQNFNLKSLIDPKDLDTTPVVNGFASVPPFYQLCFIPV
T1 sequence (P08684 whole entry): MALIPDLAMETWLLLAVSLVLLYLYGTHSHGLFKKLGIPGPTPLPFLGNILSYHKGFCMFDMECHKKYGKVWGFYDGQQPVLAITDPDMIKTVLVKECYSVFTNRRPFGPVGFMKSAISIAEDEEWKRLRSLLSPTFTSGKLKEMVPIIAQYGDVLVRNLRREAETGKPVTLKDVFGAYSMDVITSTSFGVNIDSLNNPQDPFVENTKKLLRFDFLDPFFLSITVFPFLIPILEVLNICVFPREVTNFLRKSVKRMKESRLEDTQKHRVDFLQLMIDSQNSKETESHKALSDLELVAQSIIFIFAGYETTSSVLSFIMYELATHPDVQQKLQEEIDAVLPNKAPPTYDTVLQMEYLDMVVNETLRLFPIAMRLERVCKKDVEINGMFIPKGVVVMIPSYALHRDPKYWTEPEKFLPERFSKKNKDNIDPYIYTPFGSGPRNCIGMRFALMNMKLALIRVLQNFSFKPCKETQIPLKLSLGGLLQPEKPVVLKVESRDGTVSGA
T4 sequence (P10635 whole entry): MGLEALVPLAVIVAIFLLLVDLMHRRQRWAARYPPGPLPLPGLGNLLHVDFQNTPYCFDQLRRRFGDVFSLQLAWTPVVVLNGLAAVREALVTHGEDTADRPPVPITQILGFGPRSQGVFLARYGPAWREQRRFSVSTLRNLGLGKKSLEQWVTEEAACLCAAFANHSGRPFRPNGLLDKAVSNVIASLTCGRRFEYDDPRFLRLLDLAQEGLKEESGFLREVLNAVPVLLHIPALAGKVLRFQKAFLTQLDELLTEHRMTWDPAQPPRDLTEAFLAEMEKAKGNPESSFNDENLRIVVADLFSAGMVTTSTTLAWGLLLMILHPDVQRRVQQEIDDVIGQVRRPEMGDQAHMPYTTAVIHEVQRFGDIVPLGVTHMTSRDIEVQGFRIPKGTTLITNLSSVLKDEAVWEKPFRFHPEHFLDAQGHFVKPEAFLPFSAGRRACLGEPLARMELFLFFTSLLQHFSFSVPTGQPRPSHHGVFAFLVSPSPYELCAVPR
T3 sequence (P11712 whole entry): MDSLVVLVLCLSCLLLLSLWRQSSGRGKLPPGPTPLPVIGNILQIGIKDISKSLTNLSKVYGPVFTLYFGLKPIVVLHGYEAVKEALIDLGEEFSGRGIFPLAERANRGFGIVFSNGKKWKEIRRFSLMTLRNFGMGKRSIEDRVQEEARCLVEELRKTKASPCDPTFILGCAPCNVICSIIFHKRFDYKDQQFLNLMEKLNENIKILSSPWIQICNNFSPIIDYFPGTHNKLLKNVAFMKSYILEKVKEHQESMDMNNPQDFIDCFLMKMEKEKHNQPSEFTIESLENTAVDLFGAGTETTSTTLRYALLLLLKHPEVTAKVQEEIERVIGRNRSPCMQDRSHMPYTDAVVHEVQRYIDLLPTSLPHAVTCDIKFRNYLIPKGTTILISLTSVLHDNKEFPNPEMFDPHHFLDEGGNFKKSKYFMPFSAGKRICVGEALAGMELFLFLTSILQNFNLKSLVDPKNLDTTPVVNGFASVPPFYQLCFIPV
T6 sequence (P10587 84-789 limits assumed): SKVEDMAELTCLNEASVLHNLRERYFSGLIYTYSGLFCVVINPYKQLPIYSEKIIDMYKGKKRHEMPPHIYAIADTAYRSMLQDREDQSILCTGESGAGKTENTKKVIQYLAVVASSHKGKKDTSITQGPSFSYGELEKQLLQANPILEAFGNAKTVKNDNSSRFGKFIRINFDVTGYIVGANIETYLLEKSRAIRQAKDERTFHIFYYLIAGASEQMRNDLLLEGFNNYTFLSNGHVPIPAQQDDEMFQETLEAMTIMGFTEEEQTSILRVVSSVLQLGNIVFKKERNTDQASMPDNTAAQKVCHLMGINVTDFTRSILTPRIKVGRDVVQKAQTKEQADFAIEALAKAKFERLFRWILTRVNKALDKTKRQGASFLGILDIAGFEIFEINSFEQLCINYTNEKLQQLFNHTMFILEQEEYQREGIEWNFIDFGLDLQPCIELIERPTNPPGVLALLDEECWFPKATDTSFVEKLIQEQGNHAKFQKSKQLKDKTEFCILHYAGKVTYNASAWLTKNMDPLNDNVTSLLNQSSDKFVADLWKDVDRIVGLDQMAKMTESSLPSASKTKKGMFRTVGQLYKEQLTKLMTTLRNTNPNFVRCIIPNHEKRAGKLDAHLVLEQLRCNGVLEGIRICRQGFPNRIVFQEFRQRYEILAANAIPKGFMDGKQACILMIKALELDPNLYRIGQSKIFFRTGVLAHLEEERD
T6 sequence (P02607 whole entry partner): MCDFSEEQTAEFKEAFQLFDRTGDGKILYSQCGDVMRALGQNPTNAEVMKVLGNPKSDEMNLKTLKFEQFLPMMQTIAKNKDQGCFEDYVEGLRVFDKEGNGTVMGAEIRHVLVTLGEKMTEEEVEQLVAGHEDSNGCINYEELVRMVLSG

On to `O=C1CCc2c(Cl)cc(Cn3nc(-c4cnc(O[C@H]5CCOC5)nc4)ccc3=O)cc21` [Compound 172], for which the IC50 is greater than 30 µM against CYP3A4; less than 2.5 µM in data set [1] (setting [3]); 1 µM in data set [1] (setting [4]); greater than 30 µM on CYP2C19; greater than 30 µM at CYP2C9; greater than 30 µM against CYP2D6. The IC50 at CYP1A2 is greater than 30 µM. The Kp at 6 h in data set [2] was determined as 67. Moreover, the Kp at 24 h in data set [2] was found to be 129.
Consider `O=C1CCc2c(F)cc(Cn3nc(-c4cnc(OCC(F)(F)F)nc4)ccc3=O)cc21` [Compound 153], for which the IC50 is greater than 30 µM at CYP3A4; less than 2.5 µM in data set [1] (setting [3]); 0.5 µM in data set [1] (setting [4]); greater than 30 µM at CYP2C19; greater than 30 µM on CYP2C9; greater than 30 µM against CYP2D6. In addition, on CYP1A2, the IC50 is greater than 30 µM. The inhibition at 100 µM against smooth muscle myosin S1 was -12%. In data set [2], the Kp at 6 h turned out to be 73.3. The Kp at 24 h in data set [2] worked out at 96.7.
Take `O=C1CCc2c(Cl)cc(Cn3nc(-c4cnc(C5CC5)nc4)ccc3=O)cc21` [Compound 170]: the IC50 at CYP3A4 was greater than 30 µM; in data set [1] (setting [3]), less than 2.5 µM; in data set [1] (setting [4]), 0.9 µM; at CYP2C19 it was greater than 30 µM; against CYP2C9, greater than 30 µM; against CYP2D6, greater than 30 µM. Besides, on CYP1A2, the IC50 is greater than 30 µM.
Turning to `Cc1cc(Cn2nc(-c3cnc(OCC(F)(F)F)nc3)ccc2=O)cc2c1CCC2=O` [Compound 169], the IC50 was greater than 30 µM against CYP3A4; less than 2.5 µM in data set [1] (setting [3]); 0.8 µM in data set [1] (setting [4]); greater than 30 µM against CYP2C19; greater than 30 µM against CYP2C9; greater than 30 µM against CYP2D6. Also, the IC50 against CYP1A2 was greater than 30 µM.
In the case of `O=C1CCc2c1cc(Cn1nc(-c3cnc(OCC(F)(F)F)nc3)ccc1=O)cc2C(F)F` [Compound 176], the IC50 at CYP3A4 is greater than 30 µM; in data set [1] (setting [3]), less than 2.5 µM; against CYP2C19 it was greater than 30 µM; at CYP2C9, greater than 30 µM; at CYP2D6, greater than 30 µM; against CYP1A2 it was greater than 30 µM.
With `O=C1CCc2c(F)cc(Cn3nc(-c4cnc(O[C@@H]5CCOC5)nc4)ccc3=O)cc21` [Compound 163], the IC50 against CYP3A4 was greater than 30 µM; in data set [1] (setting [3]) it was less than 2.5 µM; on CYP2C19, greater than 30 µM; against CYP2C9 it was greater than 30 µM; against CYP2D6, greater than 30 µM; against CYP1A2, greater than 30 µM. On smooth muscle myosin S1, the inhibition at 100 µM is 14%.
Take `O=C1CCc2c(Cl)cc(Cn3nc(-c4cnc(O[C@@H]5CCOC5)nc4)ccc3=O)cc21` [Compound 171]: the IC50 at CYP3A4 is greater than 30 µM; in data set [1] (setting [3]), less than 2.5 µM; in data set [1] (setting [4]), 0.9 µM; on CYP2C19 it was greater than 30 µM; at CYP2C9, greater than 30 µM; against CYP2D6, greater than 30 µM. Moreover, at CYP1A2, the IC50 is greater than 30 µM. In data set [2], the Kp at 6 h was 90.1. In addition, the Kp at 24 h in data set [2] was 161.
On to `O=C1Cc2cc(Cn3nc(-c4cnc(OCC(F)(F)F)nc4)ccc3=O)ccc21` [Compound 72], for which the IC50 against CYP3A4 is greater than 30 µM; in data set [1] (setting [3]) it was less than 2.5 µM; in data set [1] (setting [4]), 0.56 µM; against CYP2C19 it was greater than 30 µM; against CYP2C9, greater than 30 µM; against CYP2D6, greater than 30 µM. Further, the IC50 against CYP1A2 is greater than 30 µM. Also, the inhibition at 100 µM against smooth muscle myosin S1 came out at 23.6%.

For orientation: IC50 means the concentration at which inhibition is half-maximal. Broadly, the inhibition is the change of the read-out against control, counted positive when it falls.
